From the NIST ThermoML archive (doi:10.1016/j.tca.2008.10.017)

Key:
[1] = for molar entropy: 101.33 kPa, Small (less than 1 g) adiabatic calorimetry; for Triple point temperature: DTA
[2] = Molar enthalpy of transition or fusion; conditions: DSC

CCCC[N+](CCCC)(CCCC)CCCC.[I-] [tetrabutylammonium iodide]
[1], Crystal 2
Conditions | molar entropy [J/K/mol]
5 K | 0.292
10 K | 2.32
20 K | 14.45
30 K | 33.35
40 K | 55.15
50 K | 77.88
60 K | 100.5
70 K | 123
80 K | 145
90 K | 166.3
100 K | 187
110 K | 207.1
120 K | 226.7
130 K | 245.6
140 K | 264
150 K | 282
160 K | 299.4
170 K | 316.5
180 K | 333.2
190 K | 349.6
200 K | 365.7
210 K | 381.6
220 K | 397.2
230 K | 412.6
240 K | 427.9
250 K | 443.1
260 K | 458.1
270 K | 473.1
273.15 K | 477.8
280 K | 488
290 K | 502.9
298.15 K | 515
300 K | 517.7
310 K | 532.6
320 K | 547.4
330 K | 562.3
340 K | 577.3
350 K | 592.4

Conditions | Molar enthalpy of transition or fusion, [2] [kJ/mol] | Triple point temperature, [1] [K]
Crystal 1 | 9 | 423.2
Crystal 2 | 27.8 | 398.7
